Data on 46 compounds can be found in ChEMBL document CHEMBL1139664, “Identification of a novel series of tetrahydrodibenzazocines as inhibitors of 17beta-hydroxysteroid dehydrogenase type 3” (Bioorg Med Chem Lett, 2006).

Data set [1] has as its target T1, 17-beta-hydroxysteroid dehydrogenase type 3 (Homo sapiens, UniProt P37058).
T1 sequence (P37058 whole entry): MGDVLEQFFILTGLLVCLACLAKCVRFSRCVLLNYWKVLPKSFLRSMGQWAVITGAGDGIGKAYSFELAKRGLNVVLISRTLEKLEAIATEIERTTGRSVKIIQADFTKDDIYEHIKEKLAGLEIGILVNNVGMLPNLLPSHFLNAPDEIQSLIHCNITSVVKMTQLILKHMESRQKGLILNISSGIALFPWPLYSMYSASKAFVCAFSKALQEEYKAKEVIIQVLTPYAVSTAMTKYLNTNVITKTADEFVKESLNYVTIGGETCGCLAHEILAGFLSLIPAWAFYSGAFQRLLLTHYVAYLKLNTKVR
Briefly: Inhibition of 17beta-HSD3.

Data set [2] concerns the target T1, 17-beta-hydroxysteroid dehydrogenase type 3. As to the kind of experiment: Inhibition of 17beta-HSD3 by SEAP assay.
In data set [3] the test system is Liver microsomes. Briefly: Stability in human liver microsome at 10 uM. The format is ADME. (Liver microsomes are vesicles of endoplasmic reticulum, rich in cytochrome P450 enzymes.)

For orientation: IC50 means the midpoint of a concentration-inhibition curve. `COc1ccc2c(c1)SCc1ccccc1CN2C(C)=O`: the results for the IC50 in data set [1] and in data set [2] were 2060 nM and > 10000 nM, respectively.

Take `CC(=O)N1Cc2ccc(NC(=O)c3ccccc3)cc2CCc2ccccc21`: the figures for the half-maximal inhibitory concentration (IC50) in data set [1] and in data set [2] were 160 nM and 260 nM, respectively.

As for `CC(=O)N1Cc2ccc(C(N)=O)cc2CCc2ccccc21`, the IC50 was > 1000 nM in data set [1] and 2980 nM in data set [2].

With `CC(=O)N1Cc2ccc(NCc3ccccc3)cc2CCc2ccccc21`, the IC50 stood at 8 nM in data set [1] and 4 nM in data set [2].

In the case of `CC(=O)N1Cc2ccccc2CSc2ccc(Cl)cc21`, the IC50 in data set [1] was 30 nM; in data set [2], 170 nM.

Consider `CC(=O)N1Cc2ccccc2CSc2cc(F)ccc21`, for which the IC50 in data set [1] was determined as 90 nM; in data set [2], 290 nM.

On to `CC(=O)N1Cc2cc(Br)ccc2CCc2ccccc21`, for which the half-inhibitory concentration (IC50) stood at 9 nM in data set [1] and 32 nM in data set [2].

As for `CC(=O)N1Cc2ccccc2CSc2cc(Cl)c(Cl)cc21`, the IC50 was determined as 10 nM in data set [1] and 130 nM in data set [2].

Take `CC(=O)N1Cc2ccccc2CSc2cc(Br)ccc21`: the IC50 in data set [1] was found to be 250 nM; in data set [2] it was 120 nM.

For `CC(=O)N1Cc2cc(-c3ccc(C#N)cc3)ccc2CCc2cc(Cl)ccc21`, the IC50 came to 3 nM in data set [1] and 19 nM in data set [2].

On to `CC(=O)N1Cc2ccccc2CSc2ccccc21`, for which the values for the IC50 in data set [1] and in data set [2] were 400 nM and 320 nM, respectively.

Turning to `CC(=O)N1Cc2ccccc2CSc2cc(C)ccc21`, the results for the IC50 in data set [1] and in data set [2] were 1000 nM and 870 nM, respectively.

`CC(=O)N1Cc2cc(-c3ccccc3CN)ccc2CCc2cc(Cl)ccc21`: the values for the IC50 in data set [1] and in data set [2] were 239 nM and 182 nM, respectively.

`COC(=O)c1ccccc1-c1ccc2c(c1)CN(C(C)=O)c1ccc(Br)cc1CC2` came in with a Stability in data set [3] of 0.4 nmol/mg/min. Further, the IC50 in data set [1] is 0.7 nM; in data set [2], 1 nM.

`CCN1Cc2ccc(Br)cc2CCc2ccccc21`: the IC50 in data set [1] was > 1000 nM; in data set [2], 2200 nM.

With `CC(=O)N1Cc2ccc(Br)cc2CCc2ccccc21`, the figures for the IC50 in data set [1] and in data set [2] were 7 nM and 36 nM, respectively.

Consider `NC(=O)N1Cc2ccc(Br)cc2CCc2ccccc21`, for which the results for the IC50 in data set [1] and in data set [2] were 280 nM and 930 nM, respectively.

In the case of `CNC(=O)c1ccccc1-c1ccc2c(c1)CN(C(C)=O)c1ccc(Cl)cc1CC2`, the IC50 in data set [1] and in data set [2] was 25 nM each time.

With `CC(=O)N1Cc2cc(-c3cccc(C#N)c3)ccc2CCc2cc(Cl)ccc21`, the results for the IC50 in data set [1] and in data set [2] were 3 nM and 15 nM, respectively.

For the compound `CC(=O)N1Cc2ccccc2CSc2cccc(Cl)c21`, the IC50 in data set [1] was determined as 11500 nM.

Turning to `CC(=O)N1Cc2ccccc2CSc2ccc(C(F)(F)F)cc21`, the IC50 in data set [1] turned out to be 2810 nM.

Consider `CC(=O)N1Cc2cc(-c3ccccc3)ccc2CCc2cc(Cl)ccc21`, for which the figures for the IC50 in data set [1] and in data set [2] were 4 nM and 18 nM, respectively.

In the case of `O=C(C1CC1)N1Cc2ccc(Br)cc2CCc2ccccc21`, the IC50 in data set [1] is 320 nM; in data set [2] it was 1750 nM.

Regarding `CC(=O)N1Cc2ccccc2CSc2cc(S(C)(=O)=O)ccc21`, the IC50 in data set [1] is > 10000 nM.

On to `CC(=O)N1Cc2ccc(N)cc2CCc2ccccc21`, for which the IC50 in data set [1] and in data set [2] was 490 nM each time.

On to `CC(=O)N1Cc2cc(-c3ccccc3C#N)ccc2CCc2cc(Cl)ccc21`, for which the IC50 in data set [1] is 5 nM; in data set [2], 62 nM.

Consider `CC(=O)N1Cc2ccccc2CSc2c1ccc(Cl)c2Cl`, for which the figures for the IC50 in data set [1] and in data set [2] were 760 nM and 1300 nM, respectively.

`COC(=O)c1ccccc1-c1ccc2c(c1)CN(C(C)=O)c1ccc(Cl)cc1CC2` gave a Stability in data set [3] of 0.9 nmol/mg/min. The compound further came in with an IC50 in data set [2] of 0.5 nM.

As to `CC(=O)N1Cc2ccccc2CCc2ccc(Cl)cc21`, the IC50 in data set [1] was found to be 50 nM; in data set [2], 130 nM.

For `COc1ccc(-c2ccc3c(c2)CN(C(C)=O)c2ccc(Cl)cc2CC3)cc1`, the results for the IC50 in data set [1] and in data set [2] were 3 nM and 48 nM, respectively.

On to `COc1cccc(-c2ccc3c(c2)CN(C(C)=O)c2ccc(Cl)cc2CC3)c1`, for which the IC50 in data set [1] was 8 nM; in data set [2], 53 nM.

With `COc1ccccc1-c1ccc2c(c1)CN(C(C)=O)c1ccc(Cl)cc1CC2`, the IC50 in data set [1] stood at 2 nM; in data set [2], 5 nM.

Regarding `CC(=O)c1ccccc1-c1ccc2c(c1)CN(C(C)=O)c1ccc(Cl)cc1CC2`, in data set [2], the midpoint of inhibition, the IC50, lay at 0.5 nM. In other words, the sub-nanomolar range.

Consider `CC(=O)N1Cc2cc(-c3ccccc3CO)ccc2CCc2cc(Cl)ccc21`, for which the IC50 in data set [1] worked out at 0.9 nM; in data set [2], 2 nM.

Turning to `CC(=O)N1Cc2cc(-c3ccccc3)ccc2CCc2ccccc21`, in data set [2], the IC50 turned out to be 4 nM.

Regarding `CC(=O)N1Cc2ccccc2CSc2cc(Cl)ccc21`, the IC50 was 100 nM in data set [1] and 160 nM in data set [2].

Regarding `CC(=O)N1Cc2ccccc2CCc2ccccc21`, the IC50 in data set [1] was found to be 90 nM; in data set [2] it was 220 nM.

In the case of `CC(=O)N1Cc2ccccc2COc2ccccc21`, half-maximal inhibition in data set [1] (IC50) required 2970 nM.

As to `CC(=O)N1Cc2ccccc2CSc2cc(O)ccc21`, the half-inhibitory concentration (IC50) in data set [1] came to 4860 nM.

In the case of `CC(=O)N1Cc2ccccc2CNc2ccccc21`, the figures for the IC50 in data set [1] and in data set [2] were 4740 nM and > 10000 nM, respectively.

As to `CC(=O)N1Cc2cc(-c3ccccc3NS(C)(=O)=O)ccc2CCc2cc(Cl)ccc21`, the IC50 amounted to 2 nM in data set [1] and 9 nM in data set [2].

Consider `CC(=O)N1Cc2cc(-c3cccc(NS(C)(=O)=O)c3)ccc2CCc2cc(Cl)ccc21`, for which the IC50 in data set [1] is 140 nM; in data set [2] it was 190 nM.

As for `CC(=O)N1Cc2ccccc2CCc2cc(Cl)ccc21`, the IC50 in data set [1] came out at 70 nM; in data set [2], 630 nM.

In the case of `COC(=O)c1cccc(-c2ccc3c(c2)CN(C(C)=O)c2ccc(Cl)cc2CC3)c1`, the IC50 stood at 1.4 nM in data set [1] and 2 nM in data set [2].

As to `CC(=O)N1Cc2cc(-c3cccc(CN)c3)ccc2CCc2cc(Cl)ccc21`, the IC50 was 290 nM in data set [1] and 180 nM in data set [2].

For `CC(=O)N1Cc2ccccc2/C=C\c2cc(Cl)ccc21`, the IC50 in data set [1] came out at 240 nM; in data set [2], 500 nM.
